Series [1] in a line: Radical scavenging of DPPH. Conditions: DPPH 200 μM, after incubation for 30 min. Here is the method:
The antioxidant activity of compounds 1–17 was evaluated via their ability to scavenge the free radical DPPH.
Compounds dissolved in absolute methanol at concentrations of 25–400 μM were added to an equal volume of a methanolic solution of DPPH (final concentration 200 μM) at room temperature (22 ± 2 °C). Absorbance (517 nm) was recorded at different time intervals for 1 h and results were expressed as IC50 (μM) for DPPH after incubation for 30 min [3].

Series [2] deals with T1, soybean lipoxygenase (LOX-3) (Glycine max, UniProt P09186).
T1 sequence (P09186 1-857): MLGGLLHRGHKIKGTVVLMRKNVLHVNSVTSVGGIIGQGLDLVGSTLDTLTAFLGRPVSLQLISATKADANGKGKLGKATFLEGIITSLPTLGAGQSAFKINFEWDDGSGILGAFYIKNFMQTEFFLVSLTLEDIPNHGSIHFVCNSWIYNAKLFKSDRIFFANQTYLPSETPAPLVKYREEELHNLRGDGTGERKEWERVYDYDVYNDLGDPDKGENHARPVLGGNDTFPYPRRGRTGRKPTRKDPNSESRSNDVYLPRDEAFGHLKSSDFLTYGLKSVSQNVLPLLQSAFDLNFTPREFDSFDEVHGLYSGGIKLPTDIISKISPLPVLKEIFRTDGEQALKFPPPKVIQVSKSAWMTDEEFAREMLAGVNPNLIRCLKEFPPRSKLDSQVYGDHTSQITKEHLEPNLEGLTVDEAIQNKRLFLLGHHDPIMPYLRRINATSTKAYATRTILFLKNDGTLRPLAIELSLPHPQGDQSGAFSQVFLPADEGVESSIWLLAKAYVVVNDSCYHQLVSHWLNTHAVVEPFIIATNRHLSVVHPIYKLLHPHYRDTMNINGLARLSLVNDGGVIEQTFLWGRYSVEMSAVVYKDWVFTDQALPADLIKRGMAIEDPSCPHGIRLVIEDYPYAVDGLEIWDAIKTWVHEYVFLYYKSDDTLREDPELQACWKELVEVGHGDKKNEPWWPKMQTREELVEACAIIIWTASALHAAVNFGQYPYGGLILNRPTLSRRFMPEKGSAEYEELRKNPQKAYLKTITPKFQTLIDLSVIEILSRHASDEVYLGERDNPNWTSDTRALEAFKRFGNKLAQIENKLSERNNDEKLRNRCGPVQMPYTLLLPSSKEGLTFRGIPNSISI
Nature of the series: Soybean lipoxygenase (LOX-3) inhibition. It is filed as biochemical. Conditions: after 5 min of incubation; sodium linoleate 100 μM, pH 9.0; read-out: IC50 Value on LOX-3.
Description: The anti-inflammatory effect of the synthesized compounds was initially evaluated in vitro, via their ability to inhibit soybean lipoxygenase (LOX-3).
Lipoxygenase activity was determined using soybean lipoxygenase (250 U/mL) and sodium linoleate (100 μM) as substrate, in Tris–HCl buffer pH 9.0. The test compounds dissolved in methanol were added and the reaction was monitored for 5 min at 28 °C, recording absorbance at 234 nm.

Series [3] deals with carrageenan-induced mouse paw edema. As to the kind of experiment: Carrageenan-induced mouse paw edema. In kind it is in vivo. Conditions: for inhibition in vivo at 300 µmol/kg: Mus musculus, ip, 0.30 mmol/kg i.p., 3.5 h after carrageenan, mean of 6 animals, read-out: % Edema Reduction; for improvement in anti-inflammatory activity: compared to parent flufenamic acid (g) or flufenamol (h). How it is done: In vivo anti-inflammatory activity of the synthesized compounds was evaluated as mouse paw edema reduction. Paw edema was induced by subcutaneous injection of a 2% carrageenan suspension in the right paw of mice, the left serving as the control. The activity of the tested compounds (at 0.30 mmol/kg of body weight, i.p.), expressed as % reduction in paw edema 3.5 h after carrageenan injection, is shown in Table 2. […] Moreover, compounds 9 and 10 (antioxidant derivatives of mefenamic acid) caused a 1.5–2-fold improvement in edema reduction compared to that of the parent mefenamic acid (i).
For the in vivo anti-inflammatory activity, Wistar male rats or C57BL/6 mice were injected with 0.025 mL carrageenan (2% w/v solution in saline) i.d. into the right hind paw, with the left paw serving as the control. The test compounds (300 μmol/kg) were given, i.p., after the carrageenan injection, and 3.5 h later, the produced edema was estimated as the paw weight increase. Results are expressed as percentage of the reduction in paw edema and are the means for six animals (per compound).

The test system of series [4] is experimentally induced hyperlipidemic mouse model. As to the kind of experiment: Tyloxapol (Triton WR 1339)-induced hyperlipidemia. Particulars: 84 μmol/kg i.p.; 24 h after tyloxapol. In kind it is in vivo, mice. Here is the method:
Acute hyperlipidemia was achieved, i.p., by the administration of tyloxapol (Triton WR 1339). The antihyperlipidemic effect of the tested compounds was evaluated as the decrease in total cholesterol (TC) and triglyceride (TG) levels in plasma 24 h after tyloxapol administration. The results are shown in Figure 4A,B. Compounds 9 and 10 reduced TC levels in plasma by 73% and 50%, respectively, and TG levels by 76% and 41%, respectively.
An aqueous solution of Triton WR 1339 was given, i.p., to mice (400 mg/kg of body weight) and one hour later the test compounds (84 μmol/kg of body weight), dissolved in saline or saline only were administered, i.p. After 24 h, blood was taken from the aorta/heart and used for the determination of plasma total cholesterol (TC) and triglyceride (TG) levels, using commercially available kits. Levels of plasma lipids were determined in duplicate while the values presented were the mean from eight animals (per compound).

Structures are written as SMILES. A value given as a limit tells only on which side of the number the result lay.

With `Cc1c(C)c2c(c(C)c1O)CCC(C)(C(=O)OCC(C)c1ccc(CC(C)C)cc1)O2` (centres unmarked) [Compound 14, 2-(4-isobutylphenyl)propyl6-hydroxy-2,5,7,8-tetramethylchromane-2-carboxylate], the melting point fell in the range of 69.2 to 70 °C. This molecule had an IC50 in series [1] of 34 µM. In addition, the IC50 in series [2] is more than 150 µM. In series [3], the inhibition in vivo at 300 µmol/kg was 42%.

Regarding `Cc1c(Cl)cccc1Nc1ccccc1CO` [f, (2-((3-chloro-2-methylphenyl)amino)phenyl)methanol], the melting point lay in the range of 48.4 to 48.7 °C. Besides, in series [3], the inhibition in vivo at 300 µmol/kg turned out to be 43%.

For the molecule `Cc1c(Cl)cccc1Nc1ccccc1C(=O)OCc1cc(C(C)(C)C)c(O)c(C(C)(C)C)c1` [Compound 5, 3,5-di-tert-butyl-4-hydroxybenzyl 2-((3-chloro-2-methylphenyl)amino)benzoate], the IC50 in series [2] is more than 200 µM. For the same molecule, the inhibition in vivo at 300 µmol/kg in series [3] was found to be 55%.

`Cc1c(Cl)cccc1Nc1ccccc1COC(=O)c1cc(C(C)(C)C)c(O)c(C(C)(C)C)c1` [Compound 6, 2-((3-chloro-2-methylphenyl)amino)benzyl 3,5-di-tert-butyl-4-hydroxybenzoate] had a melting point of 141.1 to 141.8 °C. Moreover, the IC50 in series [2] is more than 150 µM. In addition, the inhibition in vivo at 300 µmol/kg in series [3] amounted to 67%.

As to `CC(C)(C)c1cc(COC(=O)c2ccccc2Nc2cccc(C(F)(F)F)c2)cc(C(C)(C)C)c1O` [Compound 7, 3,5-di-tert-butyl-4-hydroxybenzyl 2-((3-(trifluoromethyl)phenyl)amino)benzoate], the melting point was in the range of 87.2 to 88 °C. Moreover, the IC50 in series [2] came to 152 µM. Further, in series [3], the inhibition in vivo at 300 µmol/kg is 38% and the “improvement in anti-inflammatory activity” value was 2–2.5 fold.

For `CC(C)(C)c1cc(C(=O)OCCc2ccccc2Nc2c(Cl)cccc2Cl)cc(C(C)(C)C)c1O` [Compound 12, 2-((2,6-dichlorophenyl)amino)phenethyl 3,5-di-tert-butyl-4-hydroxybenzoate], the melting point was in the range of 147.8 to 149.2 °C. In series [2], the 50% inhibitory concentration (IC50) was 122 µM. The inhibition in vivo at 300 µmol/kg in series [3] turned out to be 54%.

Regarding `Cc1cccc(Nc2ccccc2CO)c1C` [j, (2-((2,3-dimethylphenyl)amino)phenyl)methanol, reference compound], in series [3], the inhibition in vivo at 300 µmol/kg came to 42%.

The molecule `COc1ccc2cc(C(C)COC(=O)C3(C)CCc4c(C)c(O)c(C)c(C)c4O3)ccc2c1` (centres unmarked) [Compound 15, 2-(6-methoxynaphthalen-2-yl)propyl 6-hydroxy-2,5,7,8-tetramethylchromane-2-carboxylate] registered an IC50 in series [1] of 147 µM. For the same molecule, in series [2], the IC50 came out at 9 µM. Also, in series [4], the “reduction of total cholesterol (TC) levels in plasma” value is listed as 42% and the “reduction of triglyceride (TG) levels in plasma” value amounted to 65%. For the same molecule, in series [3], the inhibition in vivo at 300 µmol/kg was determined as 55%.

Regarding `COc1ccc2cc(C(C)CO)ccc2c1` (centres unmarked) [d, 2-(6-methoxynaphthalen-2-yl)propan-1-ol, reference compound], the IC50 in series [2] was determined as 29 µM. Also, the inhibition in vivo at 300 µmol/kg in series [3] amounted to 40%.

With `CC(C)(C)c1cc(COC(=O)Cc2ccccc2Nc2c(Cl)cccc2Cl)cc(C(C)(C)C)c1O` [Compound 11, 3,5-di-tert-butyl-4-hydroxybenzyl 2-(2-((2,6-dichlorophenyl)amino)phenyl)acetate], the melting point was 149 to 149.7 °C. Also, the IC50 in series [2] was found to be 142 µM. In addition, the inhibition in vivo at 300 µmol/kg in series [3] is 40%.

As to `CC(C)Cc1ccc(C(C)COC(=O)c2cc(C(C)(C)C)c(O)c(C(C)(C)C)c2)cc1` (centres unmarked) [Compound 2, 2-(4-isobutylphenyl)propyl 3,5-di-tert-butyl-4-hydroxybenzoate], in series [3], the inhibition in vivo at 300 µmol/kg stood at 56%.

For the molecule `OCc1ccccc1Nc1cccc(C(F)(F)F)c1` [h, (2-((3-(trifluoromethyl)phenyl)amino)phenyl)methanol, reference compound], the inhibition in vivo at 300 µmol/kg in series [3] stood at 22%.

As to `CC(C)(C)c1cc(C(=O)OCc2ccccc2Nc2cccc(C(F)(F)F)c2)cc(C(C)(C)C)c1O` [Compound 8, 2-((3-(trifluoromethyl)phenyl)amino)benzyl 3,5-di-tert-butyl-4-hydroxybenzoate], the melting point is 119.9 to 120.5 °C. Besides, the IC50 in series [2] is 150 µM. In series [3], the inhibition in vivo at 300 µmol/kg was found to be 48% and the “improvement in anti-inflammatory activity” value was 2–2.5 fold.

`COc1ccc2c(c1)c(CC(=O)OCc1cc(C(C)(C)C)c(O)c(C(C)(C)C)c1)c(C)n2C(=O)c1ccc(Cl)cc1` [Compound 13, 3,5-di-tert-butyl-4-hydroxybenzyl 2-(1-(4-chlorobenzoyl)-5-methoxy-2-methyl-1H-indol-3-yl)acetate] returned a melting point of 149.3 to 149.9 °C. The IC50 in series [2] stood at 68 µM. Moreover, the inhibition in vivo at 300 µmol/kg in series [3] came out at 39%.

Consider `COc1ccc2cc(C(C)COC(=O)c3cc(C(C)(C)C)c(O)c(C(C)(C)C)c3)ccc2c1` (centres unmarked) [Compound 4, 2-(6-methoxynaphthalen-2-yl)propyl 3,5-di-tert-butyl-4-hydroxybenzoate], for which the melting point was 154.1 to 155 °C. The IC50 in series [2] is 64 µM. The inhibition in vivo at 300 µmol/kg in series [3] was found to be 49%.

For the molecule `COc1ccc2c(c1)c(CCOC(=O)C1(C)CCc3c(C)c(O)c(C)c(C)c3O1)c(C)n2C(=O)c1ccc(Cl)cc1` (centres unmarked) [Compound 17, 2-(1-(4-chlorobenzoyl)-5-methoxy-2-methyl-1H-indol-3-yl)ethyl 6-hydroxy-2,5,7,8-tetramethylchromane-2-carboxylate], the IC50 was 76 µM in series [1] and more than 150 µM in series [2]. In series [3], the inhibition in vivo at 300 µmol/kg amounted to 45%.

Turning to `CC(C)Cc1ccc(C(C)C(=O)OCc2cc(C(C)(C)C)c(O)c(C(C)(C)C)c2)cc1` (centres unmarked) [Compound 1, 3,5-di-tert-butyl-4-hydroxybenzyl 2-(4-isobutylphenyl)propanoate], the IC50 in series [2] turned out to be 22 µM. Moreover, the inhibition in vivo at 300 µmol/kg in series [3] came out at 26%.

As for `Cc1cccc(Nc2ccccc2COC(=O)c2cc(C(C)(C)C)c(O)c(C(C)(C)C)c2)c1C` [Compound 10, 2-((2,3-dimethylphenyl)amino)benzyl 3,5-di-tert-butyl-4-hydroxybenzoate], the melting point lay in the range of 136.3 to 136.9 °C. Moreover, the IC50 in series [2] is 15 µM. In series [4], the “reduction of total cholesterol (TC) levels in plasma” value is given as 50% and the “reduction of triglyceride (TG) levels in plasma” value is reported as 41%. In addition, the inhibition in vivo at 300 µmol/kg in series [3] was found to be 54%. The “improvement in edema reduction” value in series [3] (compared to parent mefenamic acid (i)) is 1.5–2 fold.

`CC(C)Cc1ccc(C(C)CO)cc1` (centres unmarked) [b, Ibuprofenol, reference compound]: the inhibition in vivo at 300 µmol/kg in series [3] is 66%.

The values above are taken from publication PMC8399014, “Design of Multifaceted Antioxidants: Shifting towards Anti-Inflammatory and Antihyperlipidemic Activity” (Molecules, 2021).
